Results reported in US20240351997A1, “NOVEL PARP7 INHIBITOR AND USE THEREOF” (SHANGHAI QILU PHARMACEUTICAL RESEARCH AND DEVELOPMENT …, priority 2021, published 2024).
pIC50: −log10 of the molar value.

Target: PARP7 (Homo sapiens (Human), UniProt Q7Z3E1)
Assay: In vitro enzymology experiment of PARP7 (enzymatic inhibition)
Format: biochemical
Procedure: II. In Vitro Enzymology Experiment of PARP2, 3, 5A, 5B, 7, 12, and 15
1. Preparation of 384-well histone-coated plate: 25 μL of histone solution was added to each well, and the plate was incubated overnight at 4° C.
2. Preparation of PBST buffer, blocking buffer, and assay buffer
3. The 384-well histone-coated plate was washed three times with PBST buffer. The plate was blocked by 50 μL of blocking buffer for 1 hour at room temperature. The plate was then washed three times with PBST buffer.
2000× compound was prepared in a 96-well source plate. 50 nL of the compound was transferred from the source plate to a 96-well intermediate plate, and 39.95 μL of assay buffer was added to each well. The plate was shaken well and centrifuged at 1000 rpm for 1 minute.
5 μL of compound DMSO solution was transferred to each well.
An enzyme mixture was incubated at 25° C. for 10 minutes.
10 μL of the enzyme mixture was added, and incubated with the compound at room temperature for 10 minutes.
10 μL of assay buffer was added to the negative control well of the assay plate.
The plate was then washed three times with PBST buffer.
25 μL of Stre-HRP was added.
The plate was incubated at room temperature for 1 hour and washed three times with PBS buffer.
25 μL of QuantaRed Enhancer mix was added. The plate was incubated for 10 minutes.
2.5 μL of QuantaRed Stop Solution was added to terminate the peroxidase reaction, and the plate was shaken for 10 to 30 seconds.
7. Paradigm was used to read the plate immediately to detect the readings at Ex550/Em620.
Using equation (1) to fit the data in Excel to obtain inhibition values
Using equation (2) to fit the data in XL-Fit to obtain IC50 values
Y is the percentage of inhibition, and X is the compound concentration.

Sequence of PARP7 (Q7Z3E1 whole entry): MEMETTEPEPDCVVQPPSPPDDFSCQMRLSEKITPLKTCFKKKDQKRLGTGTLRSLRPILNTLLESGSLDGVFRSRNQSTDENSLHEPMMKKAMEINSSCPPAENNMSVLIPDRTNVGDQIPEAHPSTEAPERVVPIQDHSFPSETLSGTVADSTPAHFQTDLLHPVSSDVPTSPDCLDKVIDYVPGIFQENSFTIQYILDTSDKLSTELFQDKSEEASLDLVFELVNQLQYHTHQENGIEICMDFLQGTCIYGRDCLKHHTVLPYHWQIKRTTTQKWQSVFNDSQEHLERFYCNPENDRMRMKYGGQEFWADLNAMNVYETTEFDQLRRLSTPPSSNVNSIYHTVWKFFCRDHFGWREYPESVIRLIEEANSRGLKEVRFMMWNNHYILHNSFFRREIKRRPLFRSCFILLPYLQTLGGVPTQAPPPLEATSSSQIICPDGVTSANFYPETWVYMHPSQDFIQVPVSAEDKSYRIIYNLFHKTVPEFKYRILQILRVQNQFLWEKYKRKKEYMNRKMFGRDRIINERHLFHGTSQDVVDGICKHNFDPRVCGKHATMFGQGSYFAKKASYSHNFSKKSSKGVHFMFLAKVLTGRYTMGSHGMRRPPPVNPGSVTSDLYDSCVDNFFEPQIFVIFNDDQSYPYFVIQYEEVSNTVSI

pIC50	Structure (SMILES)
9.17	C[C@@H](Cc1c[nH]c(=O)c(C(F)(F)F)c1)OC(=O)N1CCN(c2ncc(C(F)(F)F)cn2)C[C@H]1CO [Example 79, (S)-1-(6-Oxo-5-(trifluoromethyl)-1,6-dihydropyridin-3-yl)propan-2-yl (S)-2-(hydroxymethyl)-4-(5-(trifluoromethyl)pyrimidin-2-yl)piperazine-1-carboxylate]
9.05	O=C(CCc1c[nH]c(=O)c(C(F)(F)F)c1)N1CCN(c2ncc(C(F)(F)F)cn2)CC1 [Example 28, 5-(3-Oxo-3-(4-(5-(trifluoromethyl)pyrimidin-2-yl)piperazin-1-yl)propyl)-3-(trifluoromethyl)pyridin-2(1H)-one]
8.77	C[C@@H](Cc1c[nH]c(=O)c(C(F)(F)F)c1)OC(=O)N1CCN(c2ncc(C3CC3)cn2)CC1 [Example 176, (S)-1-(6-Oxo-5-(trifluoromethyl)-1,6-dihydropyridin-3-yl)propan-2-yl 4-(5-cyclopropylpyrimidin-2-yl)piperazine-1-carboxylate]
8.95	O=C(c1ccc(F)c(Cc2c[nH]c(=O)c(C(F)(F)F)c2)c1)N1CCN(c2ncc(C(F)(F)F)cn2)CC1 [Example 68, 5-(2-Fluoro-5-(4-(5-(trifluoromethyl)pyrimidin-2-yl)piperazine-1-carbonyl)benzyl)-3-(trifluoromethyl)pyridin-2(1H)-one]
9.19	O=C(OCCc1c[nH]c(=O)c(C(F)(F)F)c1)N1CCN(c2ncc(C(F)(F)F)cn2)C[C@H]1CO [Example 110, 2-(6-Oxo-5-(trifluoromethyl)-1,6-dihydropyridin-3-yl)ethyl (S)-2-(hydroxymethyl)-4-(5-(trifluoromethyl)pyrimidin-2-yl)piperazine-1-carboxylate]
8.67	C[C@@H](Cc1c[nH]c(=O)c(C(F)(F)F)c1)OC(=O)N1CC2CN(c3ncc(C(F)(F)F)cn3)CC2C1 (stereo partly drawn) [Example 77, (S)-1-(6-Oxo-5-(trifluoromethyl)-1,6-dihydropyridin-3-yl)propan-2-yl 5-(5-(trifluoromethyl)pyrimidin-2-yl) hexahydropyrrolo[3,4-c]pyrrole-2(1H)-carboxylate]
8.72	O=C(Oc1ccccc1-c1c[nH]c(=O)c(C(F)(F)F)c1)N1CCN(c2ncc(C(F)(F)F)cn2)CC1 [Example 134, 2-(6-Oxo-5-(trifluoromethyl)-1,6-dihydropyridin-3-yl)phenyl 4-(5-(trifluoromethyl)pyrimidin-2-yl)piperazine-1-carboxylate]
9.28	O=C(OCCc1c[nH]c(=O)c(C(F)(F)F)c1)N1CCN(c2ncc(C(F)(F)F)cn2)[C@@H](CO)C1 [Example 104, 2-(6-Oxo-5-(trifluoromethyl)-1,6-dihydropyridin-3-yl)ethyl (R)-3-(hydroxymethyl)-4-(5-(trifluoromethyl)pyrimidin-2-yl)piperazine-1-carboxylate]
8.92	C[C@@H]1CN(C(=O)O[C@@H](C)Cc2c[nH]c(=O)c(C(F)(F)F)c2)C[C@H](C)N1c1ncc(C(F)(F)F)cn1 [Example 162, (S)-1-(6-Oxo-5-(trifluoromethyl)-1,6-dihydropyridin-3-yl)propan-2-yl (3S,5R)-3,5-dimethyl-4-(5-(trifluoromethyl)pyrimidin-2-yl)piperazine-1-carboxylate]
8.54	C[C@@H]1CN(c2ncc(C(F)(F)F)cn2)CCN1C(=O)Oc1cccc(-c2c[nH]c(=O)c(C(F)(F)F)c2)c1 [Example 140, 3-(6-Oxo-5-(trifluoromethyl)-1,6-dihydropyridin-3-yl)phenyl (R)-2-methyl-4-(5-(trifluoromethyl)pyrimidin-2-yl)piperazine-1-carboxylate]
8.74	Cc1cc(OC(=O)N2CCN(c3ncc(C(F)(F)F)cn3)CC2)cc(-c2c[nH]c(=O)c(C(F)(F)F)c2)c1 [Example 138, 3-Methyl-5-(6-oxo-5-(trifluoromethyl)-1,6-dihydropyridin-3-yl)phenyl 4-(5-(trifluoromethyl)pyrimidin-2-yl)piperazine-1-carboxylate]
9.41	COC[C@@H]1CN(c2ncc(C(F)(F)F)cn2)CCN1C(=O)OCCc1c[nH]c(=O)c(C(F)(F)F)c1 (stereo in doubt) [Example 129, 2-(6-Oxo-5-(trifluoromethyl)-1,6-dihydropyridin-3-yl)ethyl 2-(methoxymethyl)-4-(5-(trifluoromethyl)pyrimidin-2-yl)piperazine-1-carboxylate]
9.12	C[C@@H](Cc1c[nH]c(=O)c(C(F)(F)F)c1)OC(=O)N1CCN(c2ncc(C(F)(F)F)s2)CC1 [Example 49, (S)-1-(6-Oxo-5-(trifluoromethyl)-1,6-dihydropyridin-3-yl)propan-2-yl 4-(5-(trifluoromethyl)thiazol-2-yl)piperazine-1-carboxylate]
8.30	C[C@@H](Cc1c[nH]c(=O)c(C(F)(F)F)c1)OC(=O)N1CCC(Nc2ncc(C(F)(F)F)cn2)CC1 [Example 72, (S)-1-(6-Oxo-5-(trifluoromethyl)-1,6-dihydropyridin-3-yl)propan-2-yl 4-((5-(trifluoromethyl)pyrimidin-2-yl)amino) piperidine-1-carboxylate]
9.05	Cc1cnc(N2CCN(C(=O)OC(C)Cc3c[nH]c(=O)c(C(F)(F)F)c3)CC2)nc1 (centres unmarked) [Example 43, 1-(6-Oxo-5-(trifluoromethyl)-1,6-dihydropyridin-3-yl)propan-2-yl 4-(5-methylpyrimidin-2-yl)piperazine-1-carboxylate]
9.12	O=C(OCCc1c[nH]c(=O)c(C(F)(F)F)c1)N1CCN(c2ncc(C3CC3)cn2)CC1 [Example 152, 2-(6-Oxo-5-(trifluoromethyl)-1,6-dihydropyridin-3-yl)ethyl 4-(5-cyclopropylpyrimidin-2-yl)piperazine-1-carboxylate]
9.36	O=C(NCCc1c[nH]c(=O)c(C(F)(F)F)c1)N1CCN(c2ncc(C(F)(F)F)cn2)CC1 [Example 32, N-(2-(6-Oxo-5-(trifluoromethyl)-1,6-dihydropyridin-3-yl)ethyl)-4-(5-(trifluoromethyl)pyrimidin-2-yl)piperazine-1-carboxamide]
9.62	O=C(OCCc1c[nH]c(=O)c(C(F)(F)F)c1)N1CCN(c2ncc(C3CCCC3)cn2)CC1 [Example 119, 2-(6-Oxo-5-(trifluoromethyl)-1,6-dihydropyridin-3-yl)ethyl 4-(5-cyclopentylpyrimidin-2-yl)piperazine-1-carboxylate]
9.25	C[C@@H](Cc1c[nH]c(=O)c(C(F)(F)F)c1)OC(=O)N1CCC(c2ccc(C(F)(F)F)cn2)CC1 [Example 99, (S)-1-(6-Oxo-5-(trifluoromethyl)-1,6-dihydropyridin-3-yl)propan-2-yl 4-(5-(trifluoromethyl)pyridin-2-yl)piperidine-1-carboxylate]
8.92	C[C@@H]1CN(c2ncc(C3CC3)cn2)[C@@H](C)CN1C(=O)OCCc1c[nH]c(=O)c(C(F)(F)F)c1 [Example 184, 2-(6-Oxo-5-(trifluoromethyl)-1,6-dihydropyridin-3-yl)ethyl (2R,5S)-4-(5-cyclopropylpyrimidin-2-yl)-2,5-dimethylpiperazine-1-carboxylate]
9.00	C[C@@H]1CN(c2ncc(C3CC3)cn2)[C@H](C)CN1C(=O)O[C@@H](C)Cc1c[nH]c(=O)c(C(F)(F)F)c1 [Example 179, (S)-1-(6-Oxo-5-(trifluoromethyl)-1,6-dihydropyridin-3-yl)propan-2-yl (2R,5R)-4-(5-cyclopropylpyrimidin-2-yl)-2,5-dimethylpiperazine-1-carboxylate]
8.96	CC(CC(=O)N1CCN(c2ncc(C(F)(F)F)cn2)CC1)c1c[nH]c(=O)c(C(F)(F)F)c1 (centres unmarked) [Example 38, 5-(4-Oxo-4-(4-(5-(trifluoromethyl)pyrimidin-2-yl)piperazin-1-yl)butan-2-yl)-3-(trifluoromethyl)pyridin-2(1H)-one]
8.30	C[C@@H]1CN(c2ncc(C(F)(F)F)cn2)C[C@@H](C)N1C(=O)O[C@@H](C)Cc1c[nH]c(=O)c(C(F)(F)F)c1 [Example 158, (S)-1-(6-Oxo-5-(trifluoromethyl)-1,6-dihydropyridin-3-yl)propan-2-yl (2R,6R)-2,6-dimethyl-4-(5-(trifluoromethyl)pyrimidin-2-yl)piperazine-1-carboxylate]
8.93	C[C@@H](Cc1c[nH]c(=O)c(C(F)(F)F)c1)OC(=O)N[C@@H]1CCN(c2ncc(C(F)(F)F)cn2)C1 [Example 52, (S)-1-(6-Oxo-5-(trifluoromethyl)-1,6-dihydropyridin-3-yl)propan-2-yl ((R)-1-(5-(trifluoromethyl)pyrimidin-2-yl)pyrrolidin-3-yl)carbamate]
8.50	O=C(COCC1CCCC1c1c[nH]c(=O)c(C(F)(F)F)c1)N1CCN(c2ncc(C(F)(F)F)cn2)CC1 (centres unmarked) [Example 58, 5-(2-((2-Oxo-2-(4-(5-(trifluoromethyl)pyrimidin-2-yl)piperazin-1-yl)ethoxy)methyl)cyclopentyl)-3-(trifluoromethyl)pyridin-2(1H)-one]

Structure (SMILES)	pIC50
CN(CCc1c[nH]c(=O)c(C(F)(F)F)c1)C(=O)N1CCN(c2ncc(C(F)(F)F)cn2)CC1 [Example 115, N-Methyl-N-(2-(6-oxo-5-(trifluoromethyl)-1,6-dihydropyridin-3-yl)ethyl)-4-(5-(trifluoromethyl)pyrimidin-2-yl)piperazine-1-carboxamide]	9.00
